Assay results from patent US11185527B2, “Methods and compositions relating to steroid hormone receptor-dependent cancers” (Wayne State University, priority 2017, dated 2021).
Several values for one entry are separate records, joined by “and”; a condition that tells them apart may be missing. Equal entries are not always repeated.

Legend:
22Rv1 cells = assay: Cell monolayer growth assay (MTT); format: cell-based, human; conditions: enzalutamide up to 20 uM
Protocol: Twenty four hours after plating the 22Rv1 cells, they were treated with the indicated concentrations of KCI807 (FIG. 4C) or with the indicated concentrations of enzalutamide (ENZ) (FIG. 4D).
Twenty four hours after plating the cells, they were treated with the indicated concentrations of the compound.
FIG. 16D is a graph showing the effect of 5′-Fluoro-5,3′-Dihydroxyflavone at various concentrations on growth of 22Rv1 cells.
Cells were trypsinized and 3000-4000 cells/well were seeded in 96-well plates coated with poly-D-lysine. The cells were seeded in phenol red-free medium supplemented with 10% FBS, 100 units/ml penicillin, 100 μg/ml streptomycin, 2 mM L-glutamine mixture and sodium pyruvate (1 mM) for LNCaP cells and phenol red-free medium supplemented with 10% FBS, 100 units/ml penicillin, 100 μg/ml streptomycin and 2 mM L-glutamine mixture for VCaP, 22Rv1, DU145, HeLa, HEK293 and H1650 cells. The cells were grown at 37° C. in 5% CO2. Twenty four hours after seeding in the 96-well plates, the cells were treated with the indicated concentration of KCI807 or DMSO (vehicle). The cells were re-treated on Day 3 by removing half the volume of medium and replacing it with fresh treated medium. Cell viability was determined using the MTT assay from day zero until day five. MTT (10 μL, 5 mg/mL) was added to each well and incubated for 2h at 37° C. The formazan crystal sediments were dissolved in 100 μL of DMSO, and the absorbance at 570 nm was measured using the BioTek Synergy 2 Microplate Reader (BioTek, Winooski, Vt.). The assay was conducted in sextuplicate wells and values were normalized to day zero.

[1] = Metabolism in pooled human liver microsomes (HLM) with or without NADPH; format: in vitro ADME
Protocol: BD UltraPool human liver microsomes (HLM) 150 and the NAPDH regenerating system solution A and B were obtained from Corning Inc. Pooled HLM were used to determine percentage of metabolism of 5,3′-Dihydroxyflavone and 5,3-Dihydroxy-4′-methylflavone. The compounds (20 μM) were co-incubated with HLM (0.05 mg/ml) in the presence or absence of NAPDH for 30 minutes in a 37° C. water bath. At the end of the microsome reaction, the reaction was quenched with 1000 μl ethyl acetate. The mixture was vortexed and centrifuged at 13,000 rpm for 15 minutes, the supernatant was then subjected to high-performance liquid chromatography with tandem mass spectrometry ([…]) analysis.

[2] = test system: ELK1-dependent promoter activation by AR; assay: Primary screening assay: luciferase reporter in recombinant HeLa cells (Gal4-TATA-Luc, Gal4-ELK1, AR) treated with testosterone; format: cell-based, human; conditions: for inhibition of ELK1-dependent promoter activation by AR (in words): testosterone-treated recombinant HeLa cells, luciferase
Description: FIG. 6A is a schematic diagram of the reporter system for the primary screening assay. Recombinant HeLa cells used in this assay harbor the Gal4-TATA-Luc promoter-reporter, and stably express a Gal4-ELK1 fusion protein as well as the androgen receptor (AR). Gal4-ELK1 is bound to the Gal4 elements in the promoter. In the absence of testosterone (small circle), AR is localized in the cytoplasm. When testosterone is present it binds to AR causing AR to translocate to the nucleus where it then binds to Gal4-ELK1 and activates the downstream luciferase reporter.
HeLa HLR cells obtained from Dr. Johann Hofman (Innsbruck Medical University), which were originally designed to serve as a cell-based assay system to measure modulation of MAPK activity. HeLa HLR cells have a stably integrated minimal promoter-luciferase reporter containing five upstream Gal4 elements (Gal4-TATA-Luc) and also constitutively express a Gal4-ELK1 fusion protein in which the Gal4 DNA binding domain is substituted for the ETS DNA binding domain of ELK1. In order to produce recombinant cell lines for high throughput screening and counter screening of small molecule libraries, HeLa HLR were stably transduced with a vector expressing the full-length AR. A sequence encoding the full length AR (SEQ ID NO:9) was subcloned from the pCMV expression vector (Origene) into the pCDH-CMV-MCS-EF1-Puro cDNA Cloning and Expression Vector (System Biosciences) at NheI (upstream) and BamHI (downstream) sites. The lentiviral vector expressing full length AR was then packaged in lentivirus and the HeLa HLR cells were infected as described below in the sub-section “Lentivirus-mediated-Transduction.” After 72 hours (h) of infection, 2 ug/mL of puromycin was added to the culture medium to select for the transduced cells. The cells were plated at low density for colony formation (20-40 colonies) in a 100 mm dish. Clonal cells were isolated using cloning cylinders from CORNING (Cat. #3166-8). The selected clones were further expanded and then tested for luciferase induction by testosterone. The clone that gave the greatest luciferase signal to noise ratio in response to testosterone treatment was then chosen for use in the primary screening assay for high throughput small molecule screening.
For high throughput screening, recombinant primary screening cells were first depleted of hormone by growing them for 24h in medium in which the serum used was heat-inactivated and charcoal-stripped. The cells were then plated in 384-well white flat bottom plates (5,000 cells/well) (Corning Product #3570) using a Multidrop (Thermo Fisher Scientific, Waltham, Mass.). The plates were then incubated for 24h prior to adding test compounds. The following day test compounds from the LOPAC, Prestwick, or Maybridge Hitfinder libraries were added precisely in a 0.2 μL volume in the test wells using a Biomek FX liquid handler (Beckman Coutler, Break, Calif.) to achieve final media concentration of 10 μM of each test compound. Using the Multidrop (ThermoLab Systems, Helsinki, Finland), testosterone was added in addition to the test compounds to achieve a final media concentration of 10 nM. As the test compounds were re-constituted from powder stocks using dimethyl sulfoxide (DMSO) as the solvent, the final media concentration of DMSO was 0.4% v/v. For the assay negative control on each plate, one row of wells on each plate contained 10 nM testosterone and 0.4% v/v of DMSO. For the assay positive control on each plate, one row of wells on each plate contained 10 nM testosterone and 10 uM enzalutamide dissolved in DMSO (0.4% v/v of DMSO in the wells). The plates were incubated for 24h at 37° C. in 5% CO2. The medium was then aspirated leaving a residual volume 10 μl using an Elx 405-plate washer (Bio Tek U.S.). Then, 10 uL of the assay reagent Bright-Glo (Promega Corp., Madison Wis.) was added to each well. […]

[3] = test system: ARE-dependent promoter activation by AR; assay: Counter screening assay: ARE-luciferase reporter in recombinant HeLa cells expressing AR; format: cell-based, human; conditions: testosterone-treated recombinant HeLa cells
Description: FIG. 6B is a schematic diagram of the reporter system for the counter screening assay. Recombinant HeLa cells used in this assay are identical to the primary screening cells except for the absence of Gal4-ELK1 and substitution of the Gal4 elements in the promoter with a canonical ARE. In this case, testosterone causes cytosolic AR to translocate to the nucleus and bind to the ARE in the promoter resulting in activation of the luciferase reporter.
The cells generated for counter screening, are HeLa cells stably transduced with a lentiviral plasmid construct containing a minimal promoter-luciferase reporter and an upstream androgen response element (ARE) sequence. These HeLa cells were also transduced with a lentiviral expression plasmid encoding the full-length AR. These lentiviral constructs were made as follows. Custom synthesized PCR primers were used to amplify and clone the ARE sequence from a pG5luc plasmid construct containing an ARE sequence element into the pGreenFire1 ™-mCMV-EF1-Neo (Plasmid) at SpeI (upstream) and BamHI (downstream) sites. pG5luc Vector is well known and the complete sequence has NCBI accession #AF264724. The ARE containing pG5luc plasmid is described in detail in Patki et al., 2013, J Biol Chem, 288:11047-11065. The lentiviral vector expressing ARE-luciferase reporter was then packaged in lentivirus and parental HeLa cells were infected as described below under the heading “Lentivirus-mediated-Transduction.” After 72h of infection, 400 ug/mL of Geneticin was added to the culture medium to select for the transduced cells. These cells were then infected with the lentivirus containing the full length AR expression plasmid described above. After 72h of infection, 2 ug/mL of Puromycin was added to the culture medium to select for the transduced cells. Clonal cells harboring both the ARE-promoter-luciferase reporter and also stably expressing AR were then isolated using cloning cylinders as described above. The selected clones were further expanded and then tested for luciferase induction by testosterone. The clone that gave the greatest luciferase signal to noise ratio in response to testosterone treatment was then chosen for use in the counter screening assay for high throughput small molecule screening. All of the plasmid constructs generated above were sequenced to verify DNA sequences before, the constructs were used.
For high throughput screening, recombinant primary screening cells were first depleted of hormone by growing them for 24h in medium in which the serum used was heat-inactivated and charcoal-stripped. The cells were then plated in 384-well white flat bottom plates (5,000 cells/well) (Corning Product #3570) using a Multidrop (Thermo Fisher Scientific, Waltham, Mass.). […]

AR negative cell lines = assay: Toxicity to AR negative cell lines; conditions: at low doses, concentration range of 1 uM-10 uM
[4] = HLM 0.05 mg/ml, 30 minutes, 37° C.

Cc1ccc(-c2cc(=O)c3c(O)cccc3o2)cc1O [4′-methyl-5,3′-dihydroxyflavone, 5,3′-dihydroxy-4′-methylflavone]
growth inhibition of 22Rv1 cells (22Rv1 cells): retained its ability to inhibit growth | compound concentration after HLM incubation, Control (absence of NADPH), replicate [1, 4]: 1.789 µmol/L and 1.770 µmol/L and 1.757 µmol/L and 1.773 µmol/L and 1.776 µmol/L and 1.782 µmol/L | compound concentration after HLM incubation, NADPH treated, replicate [1, 4]: 1.491 µmol/L and 1.513 µmol/L and 1.639 µmol/L and 1.651 µmol/L and 1.498 µmol/L and 1.501 µmol/L | mean compound concentration, Control (absence of NADPH) [1, 4]: 1.774 µmol/L | mean compound concentration, NADPH treated [1, 4]: 1.549 µmol/L | percentage metabolized (%) ([1]; HLM 0.05 mg/ml, NADPH, 30 minutes, 37° C.): 12.7% | reduction of metabolism in human liver microsomes relative to 5,3′-dihydroxyflavone ([1]; methyl group substitution on the 4′ carbon): 50%

COc1c(-c2ccc(O)c(O)c2)oc2cc(O)cc(O)c2c1=O [5,7,3′,4′-tetrahydroxy-3-methoxyflavone]
inhibition of ELK1-dependent promoter activation by AR (in words) [2]: lack of inhibition

O=c1cc(-c2cc(O)cc(F)c2)oc2cc(F)cc(O)c12 [5′,7-diflouro-5,3′-dihydroxyflavone]
inhibition of ELK1-dependent promoter activation by AR (in words) [2]: inhibited | inhibition of ARE-dependent promoter activation by AR (in words) [3]: inhibited | toxicity to AR negative cell lines (AR negative cell lines): toxic

O=c1cc(-c2cccc(O)c2)oc2cc(F)cc(O)c12 [7-Fluoro-5,3′-dihydroxyflavone]
inhibition of ELK1-dependent promoter activation by AR (in words) [2]: inhibited | inhibition of ARE-dependent promoter activation by AR (in words) [3]: inhibited

O=c1cc(-c2ccc(O)c(O)c2)oc2cc(O)cc(O)c12 [Hit1, 5,7,3′,4′-tetrahydroxyflavone]
inhibition at 10 µM ([2]; Homo sapiens, HeLa, compound concentration of 10 μM, read-out: inhibition in the primary screen): 80 to 100% | inhibition of ARE-dependent promoter activation by AR (in words) [3]: virtual absence of an effect
